This note sets out measurements from patent publication US20130005568A1, “SAFENED HERBICIDAL MIXTURES” (E.I. DU PONT DE NEMOURS AND COMPANY, priority 2011, published 2013).

Data set [1] has as its system Purple nutsedge. Kind of data set: Test G: turf grass and weed postemergence plant response rating. In kind it is in vivo, Cyperus rotundus L. Particulars: Purple nutsedge, postemergence, greenhouse, three weeks, 0-100 scale. An excerpt:
(§1) For all of the following biological tests, plant response ratings were based on a 0-100 scale where zero is growth equivalent to that of untreated plants (no plant response) and 100 represents no additional growth occurring after herbicide treatment.
(§2) Plants of the turf grass species: zoysia (Zoysia japonica Steud.), bermudagrass (Cynodon dactylon (L.) Pers.), tall fescue (Festuca arundinacea Shreib.), creeping bentgrass (Agrostis stoonoifera L.), perennial ryegrass (Lolium perenne L.) and hard fescue (Festuca species) were grown under greenhouse conditions for four months. Plants were clipped as needed to plant heights of 5-10 cm. Weeds typically found in turf: annual bluegrass (Poa annua L.), common chickweed (Stellaria media (L.) Vill.), large crabgrass (Digitaria sanguinales (L.) Scop.), dandelion (Taraxacum officinale Weber in Wiggers), goosegrass (Eleusine indica (L.) Gaertn.), henbit (Lamium amplexicaule L.), venice mallow (Hibiscus trionium L.) and purple nutsedge (Cyperus rotundus L.) were also grown under greenhouse conditions so that plants were 5-20 cm tall when they were treated. Herbicide mixtures were formulated, dissolved/dispersed in water containing 0.25% non-ionic surfactant, and sprayed postemergence to these turf grasses and weeds. Treated plants were grown under greenhouse conditions for three weeks before visual evaluations of plant responses were recorded.

Data set [2] deals with Pioneer 39K40 hybrid maize. Kind of data set: Test A: visual plant response rating, postemergence herbicide treatments alone and with Compound 1. In kind it is in vivo, Zea mays L. spp. indentata Sturt. Particulars: in vivo. As to the method:
as §1
Pioneer 39K40 hybrid maize used in this test (and also Tests B and C) is particularly sensitive to herbicides that inhibit the acetohydroxy acid synthase enzyme. Herbicide mixtures were dissolved/dispersed in a non-phytotoxic liquid carrier and were sprayed postemergence to Pioneer 39K40 hybrid maize (Zea mays L. spp. indentata Sturt.) in the third collar growth stage (extended leaf height was 50-60 cm). Treated plants were grown under greenhouse conditions for two weeks before visual evaluations of plant responses were recorded.

For data set [3], the system named is Henbit. Kind of data set: Test G: turf grass and weed postemergence plant response rating. Particulars: Henbit, postemergence, greenhouse, three weeks, 0-100 scale. The class given is in vivo, Lamium amplexicaule L.
Source text: as §1, §2

The subject of data set [4] is Chickweed. The data set is described as above. The class given is in vivo, Stellaria media (L.) Vill. Particulars: Chickweed, postemergence, greenhouse, three weeks, 0-100 scale.
Source text: as §1, §2

For data set [5], the system named is Large crabgrass. Described as above. In kind it is in vivo, Digitaria sanguinales (L.) Scop. Particulars: Large crabgrass, postemergence, greenhouse, three weeks, 0-100 scale.
Source text: as §1, §2

Data set [6] deals with Dandelion. Described as above. In kind it is in vivo, Taraxacum officinale Weber in Wiggers. Particulars: Dandelion, postemergence, greenhouse, three weeks, 0-100 scale.
Source text: as §1, §2

The subject of data set [7] is Annual bluegrass. The description is as above. The class given is in vivo, Poa annua L. Particulars: Annual bluegrass, postemergence, greenhouse, three weeks, 0-100 scale.
Source text: as §1, §2

Data set [8] relates to Venice mallow. Described as above. The class given is in vivo, Hibiscus trionium L. Particulars: Venice mallow, postemergence, greenhouse, three weeks, 0-100 scale.
Source text: as §1, §2

The subject of data set [9] is Goosegrass. The description is as above. Particulars: Goosegrass, postemergence, greenhouse, three weeks, 0-100 scale. The class given is in vivo, Eleusine indica (L.) Gaertn.
Source text: as §1, §2

Data set [10] has as its system Bermudagrass. The description is as above. In kind it is in vivo, Cynodon dactylon (L.) Pers. Particulars: Bermudagrass, postemergence, greenhouse, three weeks, 0-100 scale.
Source text: as §1
Plants of the turf grass species: zoysia (Zoysia japonica Steud.), bermudagrass (Cynodon dactylon (L.) Pers.), tall fescue (Festuca arundinacea Shreib.), creeping bentgrass (Agrostis stoonoifera L.), perennial ryegrass (Lolium perenne L.) and hard fescue (Festuca species) were grown under greenhouse conditions for four months. Plants were clipped as needed to plant heights of 5-10 cm. […] Herbicide mixtures were formulated, dissolved/dispersed in water containing 0.25% non-ionic surfactant, and sprayed postemergence to these turf grasses and weeds. Treated plants were grown under greenhouse conditions for three weeks before visual evaluations of plant responses were recorded.

The mark [11] stands for this setting: herbicide 80 g ai/ha + Compound 1 125 g ai/ha.
Setting [12] is: herbicide 200 g ai/ha + Compound 1 125 g ai/ha.

The structures appear in SMILES notation.

As for `COC(=O)c1ccccc1S(=O)(=O)NC(=O)Nc1nc(C)nc(OC)n1` [Metsulfuron-methyl, metsulfuron-methyl], the “Observed Response, Herbicide mixture with Compound 1” value (from here on “Observed Response, Herbicide mixture”) was determined as 20 in [1] (setting [11]); 100 in [3] (setting [11]); 100 in data set [4] (setting [11]); 0 in [5] (setting [11]); 100 in data set [6] (setting [11]); 50 in [7] (setting [11]). Further, the “Observed Response, Herbicide mixture” value in data set [8] (setting [11]) is given as 100; in data set [9] (setting [11]), 0. For the same compound, the “Observed Response, Herbicide alone” value is 60 in [1] (herbicide 80 g ai/ha); 99 in data set [2]; 100 in [3] (herbicide 80 g ai/ha); 100 in [4] (herbicide 80 g ai/ha); 60 in [5] (herbicide 80 g ai/ha); 100 in data set [6] (herbicide 80 g ai/ha). Further, the “Observed Response, Herbicide alone” value in [7] (herbicide 80 g ai/ha) is given as 80; in data set [8] (herbicide 80 g ai/ha) it was 100; in [9] (herbicide 80 g ai/ha), 50.
Turning to `Nc1nc(C2CC2)nc(C(=O)[O-])c1Cl.[K+]` [Aminocyclopyrachlor-potassium, aminocyclopyrachlor], the “Observed Response, Herbicide mixture” value was determined as 40 in data set [1] (setting [12]); 0 in [10] (setting [12]); 100 in data set [3] (setting [12]); 100 in data set [4] (setting [12]); 70 in data set [5] (setting [12]); 100 in data set [6] (setting [12]). Further, the “Observed Response, Herbicide mixture” value in data set [7] (setting [12]) was 0; in [8] (setting [12]) it was 98; in data set [9] (setting [12]) it was 0. The “Observed Response, Herbicide alone” value in data set [1] (herbicide 200 g ai/ha) came to 40; in data set [10] (herbicide 200 g ai/ha), 20; in [3] (herbicide 200 g ai/ha), 100; in [4] (herbicide 200 g ai/ha), 100; in data set [5] (herbicide 200 g ai/ha), 80; in [6] (herbicide 200 g ai/ha), 100. The “Observed Response, Herbicide alone” value in data set [7] (herbicide 200 g ai/ha) came to 20; in data set [8] (herbicide 200 g ai/ha) it was 100; in data set [9] (herbicide 200 g ai/ha) it was 50.
